PubChem BioAssay AID2060897 (Molecular Pharmacology Branch, DTP, NCI, 2025)

Test system: 966289-007-R4-J1-PDC complex spheroid viability
Test: Anticancer human tumor 966289-007-R4-J1-PDC patient-derived pancreatic adenocarcinoma cell line growth inhibition [RAS]
Settings: for IC50: curve of first compound; for viability, T/C: stronger effect = lower value
Summary of the method: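 Agents were tested in combination matrices in half-log decrements from a top concentration at or near clinical Cmax (10 microM if undetermined). Targets were multi-cell spheroids of tumour lines plus HUVEC and MSC stromal cells.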
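Further: spheroids exposed to agents for one week before readout.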
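Wherever viability, T/C is given: percent viability relative to DMSO vehicle control wells as 100%.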

Compound `CC(C)n1nc(-c2ccc3oc(N)nc3c2)c2c(N)ncnc21` + CCn1c(-c2cccnc2C(C)OC)c2c3cc(ccc31)N1CCOC(CC(NC(=O)C(C(C)C)N(C)C(=O)C3(F)CCN(C(=O)C#CC(C)(C)N(C)C)CC3)C(=O)N3CCCC(N3)C(=O)OCC(C)(C)C2)C1 has an IC50 (second compound 0.000949 µM) of 24.8 nM, an IC50 (second compound 0.003 µM) of 29.8 nM and an IC50 (second compound 0.00949 µM) of 28.6 nM. The IC50 (second compound 0.03 µM) was 31.7 nM, the IC50 (second compound 0.0949 µM) was 29.8 nM and the IC50 (second compound 0.3 µM) was 24.6 nM. The viability, T/C (second compound 0.000949 µM, first compound 0.000316 µM) was 101%, the viability, T/C (second compound 0.000949 µM, first compound 0.001 µM) was 88.1% and the viability, T/C (second compound 0.000949 µM, first compound 0.00316 µM) was 133%. It also gave a viability, T/C (second compound 0.000949 µM, first compound 0.01 µM) of 73.4%, a viability, T/C (second compound 0.000949 µM, first compound 0.0316 µM) of 45.9% and a viability, T/C (second compound 0.000949 µM, first compound 0.1 µM) of 14.3%. The viability, T/C (second compound 0.003 µM, first compound 0.000316 µM) was 82.1%, the viability, T/C (second compound 0.003 µM, first compound 0.001 µM) was 102% and the viability, T/C (second compound 0.003 µM, first compound 0.00316 µM) was 116%. The viability, T/C (second compound 0.003 µM, first compound 0.01 µM) was 75.9%, the viability, T/C (second compound 0.003 µM, first compound 0.0316 µM) was 50.8% and the viability, T/C (second compound 0.003 µM, first compound 0.1 µM) was 15.4%. It also gave a viability, T/C (second compound 0.00949 µM, first compound 0.000316 µM) of 67.1%, a viability, T/C (second compound 0.00949 µM, first compound 0.001 µM) of 111% and a viability, T/C (second compound 0.00949 µM, first compound 0.00316 µM) of 95.8%. It also gave a viability, T/C (second compound 0.00949 µM, first compound 0.01 µM) of 90.2%, a viability, T/C (second compound 0.00949 µM, first compound 0.0316 µM) of 46.1% and a viability, T/C (second compound 0.00949 µM, first compound 0.1 µM) of 20.3%. The viability, T/C (second compound 0.03 µM, first compound 0.000316 µM) was 56.9%, the viability, T/C (second compound 0.03 µM, first compound 0.001 µM) was 96.6% and the viability, T/C (second compound 0.03 µM, first compound 0.00316 µM) was 111%. The viability, T/C (second compound 0.03 µM, first compound 0.01 µM) was 91.8%, the viability, T/C (second compound 0.03 µM, first compound 0.0316 µM) was 50.1% and the viability, T/C (second compound 0.03 µM, first compound 0.1 µM) was 15%. The viability, T/C (second compound 0.0949 µM, first compound 0.000316 µM) was 58.4%, the viability, T/C (second compound 0.0949 µM, first compound 0.001 µM) was 96% and the viability, T/C (second compound 0.0949 µM, first compound 0.00316 µM) was 106%. The viability, T/C (second compound 0.0949 µM, first compound 0.01 µM) was 81.3%, the viability, T/C (second compound 0.0949 µM, first compound 0.0316 µM) was 48.4% and the viability, T/C (second compound 0.0949 µM, first compound 0.1 µM) was 18.2%. The viability, T/C (second compound 0.3 µM, first compound 0.000316 µM) was 115%, the viability, T/C (second compound 0.3 µM, first compound 0.001 µM) was 96.7% and the viability, T/C (second compound 0.3 µM, first compound 0.00316 µM) was 84%. It also gave a viability, T/C (second compound 0.3 µM, first compound 0.01 µM) of 89.7%, a viability, T/C (second compound 0.3 µM, first compound 0.0316 µM) of 38.6% and a viability, T/C (second compound 0.3 µM, first compound 0.1 µM) of 16.4%.
